Experimental data reported in ChEMBL document CHEMBL1201862, “PubChem BioAssay data set” (2004).
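1) Cells in 96-well plates. 2) Compound, 48 h, 5 concentrations. 3) Linear interpolation between surrounding doses. 4) Unreached endpoint = highest concentration. GI50 is the concentration that inhibits growth by half.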 Activity calls are given as the source filed them. No stated cut-off is given here; in the data, active = GI50 up to about 1.1 µM and inactive = higher.

What was measured:
Assay in all cases: inhibition of tumour cell growth, NCI panel, 48 h
[1] = system: 786-0
[2] = system: A498
[3] = system: A549
[4] = system: ACHN
[5] = system: BT-549
[6] = system: CAKI-1
[7] = system: COLO 205
[8] = system: DU-145
[9] = system: EKVX
[10] = system: HCC 2998
[11] = system: HCT-116
[12] = system: HCT-15
[13] = system: HOP-62
[14] = system: HOP-92
[15] = system: HT-29
[16] = system: Hs-578T
[17] = system: IGROV-1
[18] = system: K562
[19] = system: KM12
[20] = system: M14
[21] = system: MCF7
[22] = system: MDA-MB-231
[23] = system: MDA-MB-435
[24] = system: MDA-N
[25] = system: MOLT-4
[26] = system: Malme-3M
[27] = system: NCI-H23
[28] = system: NCI-H460
[29] = system: NCI-H522
[30] = system: NCI/ADR-RES
[31] = system: OVCAR-3
[32] = system: OVCAR-4
[33] = system: OVCAR-5
[34] = system: OVCAR-8
[35] = system: PC-3
[36] = system: RPMI-8226
[37] = system: RXF 393
[38] = system: SF-268
[39] = system: SF-295
[40] = system: SK-MEL-28
[41] = system: SK-MEL-2
[42] = system: SK-MEL-5
[43] = system: SK-OV-3
[44] = system: SNB-19
[45] = system: SNB-75
[46] = system: SW-620
[47] = system: T47D
[48] = system: TK-10
[49] = system: U-251
[50] = system: UACC-257
[51] = system: UACC-62
[52] = system: UO-31
[53] = system: NCI-H226
[54] = system: SF-539
[55] = system: SN12C

N#CC(Cc1ccccc1)N(CCC1=CCCCC1)Cc1ccccc1 (stereo not given)
GI50 [1]: > 100 µM (inactive)
GI50 [2]: > 100 µM (inactive)
GI50 [3]: 54.7 µM (inactive)
GI50 [4]: > 100 µM (inactive)
GI50 [5]: 71.9 µM (inactive)
GI50 [6]: > 100 µM (inactive)
GI50 [7]: 23.4 µM (inactive)
GI50 [8]: > 100 µM (inactive)
GI50 [9]: 56.5 µM (inactive)
GI50 [10]: 28.4 µM (inactive)
GI50 [11]: 36.8 µM (inactive)
GI50 [12]: 42.9 µM
GI50 [13]: > 100 µM (inactive)
GI50 [14]: 35.1 µM (inactive)
GI50 [15]: 32.2 µM (inactive)
GI50 [16]: > 100 µM (inactive)
GI50 [17]: 81.1 µM (inactive)
GI50 [18]: 54.1 µM (inactive)
GI50 [19]: 43.1 µM (inactive)
GI50 [20]: 44.6 µM (inactive)
GI50 [21]: 31.2 µM (inactive)
GI50 [22]: > 100 µM (inactive)
GI50 [23]: 22 µM (inactive)
GI50 [24]: 32.4 µM (inactive)
GI50 [25]: 22.3 µM (inactive)
GI50 [26]: 40.8 µM (inactive)
GI50 [27]: 56.8 µM (inactive)
GI50 [28]: 62.2 µM (inactive)
GI50 [29]: 25.3 µM (inactive)
GI50 [30]: 59.6 µM (inactive)
GI50 [31]: 81.7 µM (inactive)
GI50 [32]: 83.9 µM (inactive)
GI50 [33]: 97.7 µM (inactive)
GI50 [34]: 72.1 µM (inactive)
GI50 [35]: 51.1 µM (inactive)
GI50 [36]: 17.9 µM (inactive)
GI50 [37]: 46.1 µM (inactive)
GI50 [38]: > 100 µM (inactive)
GI50 [39]: 61.5 µM (inactive)
GI50 [40]: 68.4 µM (inactive)
GI50 [41]: 57.8 µM (inactive)
GI50 [42]: 22.3 µM (inactive)
GI50 [43]: > 100 µM (inactive)
GI50 [44]: > 100 µM (inactive)
GI50 [45]: 61 µM (inactive)
GI50 [46]: 41.1 µM (inactive)
GI50 [47]: 47.3 µM (inactive)
GI50 [48]: > 100 µM (inactive)
GI50 [49]: 81.7 µM (inactive)
GI50 [50]: 43.8 µM (inactive)
GI50 [51]: 81.3 µM (inactive)
GI50 [52]: > 100 µM (inactive)

Cc1ccc(C2=Nc3ccccc3SC(c3cccc([N+](=O)[O-])c3)C2)cc1 (stereo not given)
GI50 [1]: 6.3 µM (inactive)
GI50 [2]: > 100 µM (inactive)
GI50 [3]: 26.2 µM (inactive)
GI50 [4]: > 100 µM (inactive)
GI50 [5]: 15.7 µM (inactive)
GI50 [6]: 51.4 µM (inactive)
GI50 [7]: 58.7 µM (inactive)
GI50 [8]: 13.1 µM (inactive)
GI50 [9]: 49.7 µM (inactive)
GI50 [11]: 3.6 µM (inactive)
GI50 [12]: 48.1 µM
GI50 [13]: 27.6 µM (inactive)
GI50 [14]: 10.4 µM (inactive)
GI50 [15]: 5.96 µM (inactive)
GI50 [16]: 14.3 µM (inactive)
GI50 [17]: 8.34 µM (inactive)
GI50 [18]: 6.56 µM (inactive)
GI50 [19]: 8.04 µM (inactive)
GI50 [20]: 23.9 µM (inactive)
GI50 [21]: 4.08 µM (inactive)
GI50 [22]: 40.6 µM (inactive)
GI50 [23]: 13.1 µM (inactive)
GI50 [24]: 15.7 µM (inactive)
GI50 [26]: 26.7 µM (inactive)
GI50 [53]: > 100 µM (inactive)
GI50 [27]: 11.8 µM (inactive)
GI50 [28]: 27.9 µM (inactive)
GI50 [29]: 9.59 µM (inactive)
GI50 [30]: 59.6 µM (inactive)
GI50 [31]: 8.59 µM (inactive)
GI50 [32]: 27.4 µM (inactive)
GI50 [33]: > 100 µM (inactive)
GI50 [34]: 10.2 µM (inactive)
GI50 [35]: 10.2 µM (inactive)
GI50 [36]: 2.38 µM (inactive)
GI50 [37]: 16.4 µM (inactive)
GI50 [38]: 16.2 µM (inactive)
GI50 [39]: 28.4 µM (inactive)
GI50 [54]: 3.8 µM (inactive)
GI50 [40]: > 100 µM (inactive)
GI50 [41]: 34 µM (inactive)
GI50 [42]: 15.4 µM (inactive)
GI50 [43]: 31.1 µM (inactive)
GI50 [55]: 34.1 µM (inactive)
GI50 [44]: 26.9 µM (inactive)
GI50 [45]: 11.4 µM (inactive)
GI50 [46]: 3.18 µM (inactive)
GI50 [47]: 10.7 µM (inactive)
GI50 [48]: 14.5 µM (inactive)
GI50 [49]: 4.59 µM (inactive)
GI50 [50]: 24.7 µM (inactive)
GI50 [51]: > 100 µM (inactive)
GI50 [52]: 5.4 µM (inactive)
